pIC50: −log10 of the molar value. Where two headings read alike, the source gives them in different places.
Tests used:
[1] = test system: HeLa (human cervical cancer); test: Cytotoxicity assay (CellTiter-Glo), HeLa; type: cell-based
From the text: (§1) Determination of the Half Maximal Inhibition Concentration IC50: • 1.

[2] = test system: DU 145 (human prostate cancer); test: Cytotoxicity assay (CellTiter-Glo), DU 145; type: cell-based; conditions: for pIC50: CellTiter-Glo, read-out: Absolute IC50
From the text: as §1

[3] = test system: K-562 (human chronic myelogenous leukemia); test: Cytotoxicity assay (CellTiter-Glo), K-562; type: cell-based; conditions: for pIC50: CellTiter-Glo, read-out: Absolute IC50
From the text: as §1

[4] = test system: GRANTA-519 (human B Cell lymphoma); test: Cytotoxicity assay (CellTiter-Glo), GRANTA-519; conditions: for pIC50: read-out: Absolute IC50
From the text: (§3) The homogeneous assay procedure involves adding a single reagent (CellTiter-Glo® Reagent) directly to cells cultured in serum-supplemented medium. The homogeneous “add-mix-measure” format results in cell lysis and generation of a luminescent signal proportional to the amount of ATP present. The amount of ATP is directly proportional to the number of cells present in culture. The assay generates a luminescent signal, produced by the luciferase reaction.
(§4) Determination of the Half Maximal Inhibition Concentration IC50: • 1. Harvest cells during the logarithmic growth period and count cell number using Count-star. • 2. […] Add 90 μL cell suspensions to two 96-well plates (plates A and B) with the final cell density of 4×10^3 cells/well. (cell concentration is adjusted according to the data base or density optimization assay.)
(§5) Next day: For the Plates of T0 Reading: • 1) Add 10 μL culture medium to each well of plate A for T0 reading. • 2) Equilibrate the plate and its content at RT for approximately 30 min. • 3) Add 50 μL CellTiter-Glo (CTG) reagent to each well. • 4) Mix content for 5 min on an orbital shaker to induce cell lysis. • 5) Allow the plate to incubate at RT for 20 min to stabilize luminescent signal. Note: Uneven luminescent signal within standard plates can be caused by temperature gradients, uneven seeding of cells or edge effects in multiwell plates. • 6) Record luminescence (T0) using EnVision Multi Label Reader.
(§6) Note: Uneven luminescent signal within standard plates can be caused by temperature gradients, uneven seeding of cells or edge effects in multiwall plates. • 9) Record luminescence.
(§7) In order to calculate absolute IC50 (EC50), a dose-response curve was fitted using nonlinear regression model with a sigmoidal dose response. The formula for calculating surviving rate is shown below and the absolute IC50 (EC50) was calculated according to the dose-response curve generated by GraphPad Prism 5.0.
(§8) The surviving rate (%)=(LumTest article−LumMedium control)/(LumNon-treated−LumMedium control)×100%.

PDGFRb = PDGFRb (Homo sapiens, UniProt P09619); test: Kinase inhibition, PDGFRb; type: biochemical; conditions: 10 μM ATP; read-out: Compound IC50 (M), PDGFRb
Procedure: (§2) The compounds in Table 1 were tested for the ability to inhibit the kinase activity of the listed protein kinases.

FLT3 = target: T1, FLT3 (Homo sapiens, UniProt P36888); test: Kinase inhibition, FLT3; type: biochemical; conditions: 10 μM ATP; values <1 nM estimated from best curve fitting; read-out: Compound IC50 (M), FLT3
T1 sequence (P36888 27-993): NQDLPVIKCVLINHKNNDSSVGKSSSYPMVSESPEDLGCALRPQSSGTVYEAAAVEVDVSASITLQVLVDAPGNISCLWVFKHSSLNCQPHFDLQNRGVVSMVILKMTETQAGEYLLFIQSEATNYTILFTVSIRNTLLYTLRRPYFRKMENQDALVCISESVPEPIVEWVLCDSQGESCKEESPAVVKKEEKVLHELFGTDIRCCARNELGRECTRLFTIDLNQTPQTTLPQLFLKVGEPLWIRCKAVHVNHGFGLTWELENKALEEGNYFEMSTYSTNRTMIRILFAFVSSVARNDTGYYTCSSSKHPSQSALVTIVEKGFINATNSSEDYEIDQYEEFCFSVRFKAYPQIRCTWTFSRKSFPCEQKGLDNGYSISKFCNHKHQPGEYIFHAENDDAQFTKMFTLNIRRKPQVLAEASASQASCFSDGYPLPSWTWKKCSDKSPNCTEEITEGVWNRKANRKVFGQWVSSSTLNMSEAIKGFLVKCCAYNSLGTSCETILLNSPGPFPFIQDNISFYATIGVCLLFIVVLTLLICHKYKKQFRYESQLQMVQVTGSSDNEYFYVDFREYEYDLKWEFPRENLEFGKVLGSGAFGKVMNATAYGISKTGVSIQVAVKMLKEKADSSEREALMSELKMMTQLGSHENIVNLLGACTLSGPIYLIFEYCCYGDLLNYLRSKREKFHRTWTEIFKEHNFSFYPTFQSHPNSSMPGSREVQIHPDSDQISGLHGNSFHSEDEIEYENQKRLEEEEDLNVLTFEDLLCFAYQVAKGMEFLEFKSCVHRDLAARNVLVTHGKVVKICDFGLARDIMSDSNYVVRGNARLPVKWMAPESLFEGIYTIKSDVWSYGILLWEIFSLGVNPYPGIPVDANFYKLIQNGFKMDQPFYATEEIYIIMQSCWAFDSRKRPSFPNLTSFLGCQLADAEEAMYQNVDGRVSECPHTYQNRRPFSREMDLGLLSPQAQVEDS
Procedure: as §2

CDK6/cyclin D1 = CDK6/cyclin D1 (Homo sapiens, UniProt Q00534); test: Kinase inhibition, CDK6/cyclin D1; type: biochemical; conditions: 10 μM ATP; values <1 nM estimated from best curve fitting; read-out: Compound IC50 (M), CDK6/cyclin D1
Chain of CDK6/cyclin D1 (Q00534 whole entry): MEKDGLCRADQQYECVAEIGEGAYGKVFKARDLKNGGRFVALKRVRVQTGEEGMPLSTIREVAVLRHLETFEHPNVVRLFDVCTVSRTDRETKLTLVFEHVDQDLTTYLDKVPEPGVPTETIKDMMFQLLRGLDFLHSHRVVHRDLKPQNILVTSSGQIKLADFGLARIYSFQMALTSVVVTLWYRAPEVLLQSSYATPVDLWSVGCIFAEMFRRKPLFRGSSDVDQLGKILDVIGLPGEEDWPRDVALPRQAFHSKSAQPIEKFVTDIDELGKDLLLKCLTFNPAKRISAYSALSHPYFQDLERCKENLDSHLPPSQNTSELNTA
Chain of CDK6/cyclin D1 (P24385 whole entry partner): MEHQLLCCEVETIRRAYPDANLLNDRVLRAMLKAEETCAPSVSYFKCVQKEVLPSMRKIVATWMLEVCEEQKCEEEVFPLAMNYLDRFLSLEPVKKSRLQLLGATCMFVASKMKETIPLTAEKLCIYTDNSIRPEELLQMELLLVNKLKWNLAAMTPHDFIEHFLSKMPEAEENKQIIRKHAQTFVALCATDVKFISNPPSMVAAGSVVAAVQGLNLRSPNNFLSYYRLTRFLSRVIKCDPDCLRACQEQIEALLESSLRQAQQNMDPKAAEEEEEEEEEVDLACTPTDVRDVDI
Procedure: as §2

CDK9/cyclin K = CDK9/cyclin K (Homo sapiens, UniProt P50750); test: Kinase inhibition, CDK9/cyclin K; type: biochemical; conditions: 10 μM ATP; read-out: Compound IC50 (M), CDK9/cyclin K
Procedure: as §2

FGFR1 = FGFR1 (Homo sapiens, UniProt P11362); test: Kinase inhibition, FGFR1; type: biochemical; conditions: 10 μM ATP; read-out: Compound IC50 (M), FGFR1
Procedure: as §2

CDK4/cyclin D3 = CDK4/cyclin D3 (Homo sapiens, UniProt P11802); test: Kinase inhibition, CDK4/cyclin D3; type: biochemical; conditions: 10 μM ATP; read-out: Compound IC50 (M), CDK4/cyclin D3
Chain of CDK4/cyclin D3 (P11802 whole entry): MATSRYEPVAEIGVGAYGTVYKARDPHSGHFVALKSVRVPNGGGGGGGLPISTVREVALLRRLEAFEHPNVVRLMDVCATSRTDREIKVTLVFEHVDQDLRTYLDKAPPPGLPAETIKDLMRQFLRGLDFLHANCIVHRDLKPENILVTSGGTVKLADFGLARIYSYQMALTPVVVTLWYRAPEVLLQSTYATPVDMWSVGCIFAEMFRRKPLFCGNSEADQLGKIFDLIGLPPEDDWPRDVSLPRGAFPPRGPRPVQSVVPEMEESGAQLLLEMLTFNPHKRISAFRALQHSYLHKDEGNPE
Chain of CDK4/cyclin D3 (P30281 whole entry partner): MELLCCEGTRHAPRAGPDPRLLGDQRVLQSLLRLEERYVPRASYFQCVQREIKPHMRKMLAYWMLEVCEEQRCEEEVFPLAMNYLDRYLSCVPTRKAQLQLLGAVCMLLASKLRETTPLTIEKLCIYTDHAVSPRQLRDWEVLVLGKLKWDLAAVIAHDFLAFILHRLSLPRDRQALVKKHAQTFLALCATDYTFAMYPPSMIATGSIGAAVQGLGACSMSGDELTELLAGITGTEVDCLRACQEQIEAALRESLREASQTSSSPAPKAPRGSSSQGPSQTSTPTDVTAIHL
Procedure: as §2

FLT4/VEGFR3 = FLT4/VEGFR3 (Homo sapiens, UniProt P35916); test: Kinase inhibition, FLT4/VEGFR3; type: biochemical; conditions: 10 μM ATP; read-out: Compound IC50 (M), FLT4/VEGFR3
Chain of FLT4/VEGFR3 (P35916 25-1363): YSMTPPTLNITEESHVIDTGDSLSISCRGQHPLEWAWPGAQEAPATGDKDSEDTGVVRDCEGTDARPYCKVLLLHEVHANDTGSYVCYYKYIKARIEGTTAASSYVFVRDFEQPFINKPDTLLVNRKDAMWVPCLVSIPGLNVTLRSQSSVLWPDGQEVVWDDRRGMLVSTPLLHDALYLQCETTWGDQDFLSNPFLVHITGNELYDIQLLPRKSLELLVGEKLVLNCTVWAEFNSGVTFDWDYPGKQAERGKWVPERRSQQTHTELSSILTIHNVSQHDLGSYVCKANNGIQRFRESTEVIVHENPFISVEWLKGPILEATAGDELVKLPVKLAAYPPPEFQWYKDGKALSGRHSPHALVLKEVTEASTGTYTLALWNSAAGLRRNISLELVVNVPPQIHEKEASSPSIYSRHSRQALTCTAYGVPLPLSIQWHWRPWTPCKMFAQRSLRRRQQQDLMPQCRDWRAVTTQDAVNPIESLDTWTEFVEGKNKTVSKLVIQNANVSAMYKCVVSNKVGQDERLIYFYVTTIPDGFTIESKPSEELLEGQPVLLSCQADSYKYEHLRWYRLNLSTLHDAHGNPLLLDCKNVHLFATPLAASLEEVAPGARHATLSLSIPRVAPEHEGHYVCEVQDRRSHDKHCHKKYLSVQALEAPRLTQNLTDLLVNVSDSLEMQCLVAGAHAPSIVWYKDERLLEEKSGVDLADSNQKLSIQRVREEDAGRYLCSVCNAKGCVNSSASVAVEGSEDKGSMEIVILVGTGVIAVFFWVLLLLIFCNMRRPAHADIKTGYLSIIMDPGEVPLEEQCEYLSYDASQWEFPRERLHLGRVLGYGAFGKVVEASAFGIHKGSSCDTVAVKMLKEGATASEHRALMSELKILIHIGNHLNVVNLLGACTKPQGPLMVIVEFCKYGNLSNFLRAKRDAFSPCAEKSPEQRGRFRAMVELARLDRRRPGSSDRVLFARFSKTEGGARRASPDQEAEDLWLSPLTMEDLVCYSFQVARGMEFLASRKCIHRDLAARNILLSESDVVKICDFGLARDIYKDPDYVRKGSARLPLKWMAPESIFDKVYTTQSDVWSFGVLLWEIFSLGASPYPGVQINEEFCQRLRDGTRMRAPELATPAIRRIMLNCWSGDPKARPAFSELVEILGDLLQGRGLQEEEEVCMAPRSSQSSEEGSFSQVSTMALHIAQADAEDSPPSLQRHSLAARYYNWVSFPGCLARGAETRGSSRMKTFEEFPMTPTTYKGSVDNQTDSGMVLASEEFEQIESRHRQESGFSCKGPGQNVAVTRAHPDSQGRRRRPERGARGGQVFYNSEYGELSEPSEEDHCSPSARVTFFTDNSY
Procedure: The compounds in Table 1 were tested for the ability to inhibit the kinase activity of the listed protein kinases. […]

[5] = test system: GRANTA-519 (human B Cell lymphoma)
From the text: as §3, §4, §5, §6, §7, §8

CDK6/cyclin D3 = CDK6/cyclin D3 (Homo sapiens, UniProt Q00534); test: Kinase inhibition, CDK6/cyclin D3; type: biochemical; conditions: 10 μM ATP; read-out: Compound IC50 (M), CDK6/cyclin D3
Chain of CDK6/cyclin D3 (Q00534 whole entry): as the sequence (Q00534 whole entry) above
Chain of CDK6/cyclin D3 (P30281 whole entry partner): as the sequence (P30281 whole entry partner) above
Procedure: as §2

PKG2/PRKG2 = target: T2, PKG2/PRKG2 (Homo sapiens, UniProt Q13237); test: Kinase inhibition, PKG2/PRKG2; type: biochemical; conditions: 10 μM ATP; read-out: Compound IC50 (M), PKG2/PRKG2
T2 sequence (Q13237 1-762): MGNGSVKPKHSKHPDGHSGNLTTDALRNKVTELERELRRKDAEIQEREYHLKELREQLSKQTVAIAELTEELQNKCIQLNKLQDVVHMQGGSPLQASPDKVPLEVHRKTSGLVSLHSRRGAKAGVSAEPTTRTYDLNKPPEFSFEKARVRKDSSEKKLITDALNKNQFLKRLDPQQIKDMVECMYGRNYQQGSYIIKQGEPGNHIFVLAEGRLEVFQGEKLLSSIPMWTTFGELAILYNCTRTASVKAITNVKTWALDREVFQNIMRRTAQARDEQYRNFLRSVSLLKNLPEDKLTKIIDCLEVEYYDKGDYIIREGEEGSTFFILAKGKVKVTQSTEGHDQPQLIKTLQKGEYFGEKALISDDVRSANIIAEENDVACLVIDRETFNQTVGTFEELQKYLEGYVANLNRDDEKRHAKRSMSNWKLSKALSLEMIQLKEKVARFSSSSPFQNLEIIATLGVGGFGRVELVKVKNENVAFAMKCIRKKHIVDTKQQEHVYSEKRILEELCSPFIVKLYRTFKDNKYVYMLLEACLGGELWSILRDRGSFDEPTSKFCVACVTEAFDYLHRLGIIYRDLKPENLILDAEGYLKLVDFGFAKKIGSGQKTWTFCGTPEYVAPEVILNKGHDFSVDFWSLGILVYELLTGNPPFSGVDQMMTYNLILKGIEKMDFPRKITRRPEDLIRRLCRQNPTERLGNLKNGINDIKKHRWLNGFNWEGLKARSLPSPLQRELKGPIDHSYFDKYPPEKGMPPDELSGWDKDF
Procedure: as §2

CDK4/cyclin D1 = CDK4/cyclin D1 (Homo sapiens, UniProt P11802); test: Kinase inhibition, CDK4/cyclin D1; type: biochemical; conditions: 10 μM ATP; read-out: Compound IC50 (M), CDK4/cyclin D1
Chain of CDK4/cyclin D1 (P11802 whole entry): as the sequence (P11802 whole entry) above
Chain of CDK4/cyclin D1 (P24385 whole entry partner): as the sequence (P24385 whole entry partner) above
Procedure: as §2

ABL1 = ABL1 (Homo sapiens, UniProt P00519); test: Kinase inhibition, ABL1; type: biochemical; conditions: 10 μM ATP; read-out: Compound IC50 (M), ABL1
Chain of ABL1 (P00519 whole entry): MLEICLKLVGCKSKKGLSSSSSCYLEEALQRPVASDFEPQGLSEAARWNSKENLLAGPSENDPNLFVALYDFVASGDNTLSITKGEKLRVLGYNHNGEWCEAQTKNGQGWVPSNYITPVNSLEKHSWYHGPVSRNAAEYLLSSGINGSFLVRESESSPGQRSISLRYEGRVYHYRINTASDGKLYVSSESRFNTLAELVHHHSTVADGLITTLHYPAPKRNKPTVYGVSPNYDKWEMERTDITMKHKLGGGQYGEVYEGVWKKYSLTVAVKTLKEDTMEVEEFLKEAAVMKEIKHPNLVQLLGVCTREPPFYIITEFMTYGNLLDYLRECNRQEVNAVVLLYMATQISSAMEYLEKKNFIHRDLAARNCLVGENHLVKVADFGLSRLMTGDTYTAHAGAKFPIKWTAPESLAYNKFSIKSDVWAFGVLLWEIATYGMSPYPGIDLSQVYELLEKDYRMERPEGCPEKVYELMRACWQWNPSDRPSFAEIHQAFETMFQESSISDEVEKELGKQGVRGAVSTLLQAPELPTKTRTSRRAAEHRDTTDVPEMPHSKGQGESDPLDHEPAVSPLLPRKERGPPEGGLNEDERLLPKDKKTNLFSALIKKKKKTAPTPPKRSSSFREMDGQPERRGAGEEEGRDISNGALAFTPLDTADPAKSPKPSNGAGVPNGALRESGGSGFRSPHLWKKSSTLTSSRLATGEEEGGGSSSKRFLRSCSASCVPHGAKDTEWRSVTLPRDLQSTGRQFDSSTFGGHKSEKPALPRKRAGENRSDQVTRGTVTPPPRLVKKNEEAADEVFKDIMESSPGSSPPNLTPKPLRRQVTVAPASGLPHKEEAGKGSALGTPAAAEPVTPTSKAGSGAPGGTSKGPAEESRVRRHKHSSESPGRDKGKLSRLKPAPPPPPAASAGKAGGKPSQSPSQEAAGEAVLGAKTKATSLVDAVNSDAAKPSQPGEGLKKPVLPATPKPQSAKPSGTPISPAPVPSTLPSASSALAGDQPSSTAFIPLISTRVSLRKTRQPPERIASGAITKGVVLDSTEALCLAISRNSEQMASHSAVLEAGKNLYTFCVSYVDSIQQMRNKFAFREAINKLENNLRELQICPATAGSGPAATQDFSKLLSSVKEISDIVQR
Procedure: as §2

ARK5/NUAK1 = target: T3, ARK5/NUAK1 (Homo sapiens, UniProt O60285); test: Kinase inhibition, ARK5/NUAK1; type: biochemical; conditions: 10 μM ATP; values <1 nM estimated from best curve fitting; read-out: Compound IC50 (M), ARK5/NUAK1
T3 sequence (O60285 1-661): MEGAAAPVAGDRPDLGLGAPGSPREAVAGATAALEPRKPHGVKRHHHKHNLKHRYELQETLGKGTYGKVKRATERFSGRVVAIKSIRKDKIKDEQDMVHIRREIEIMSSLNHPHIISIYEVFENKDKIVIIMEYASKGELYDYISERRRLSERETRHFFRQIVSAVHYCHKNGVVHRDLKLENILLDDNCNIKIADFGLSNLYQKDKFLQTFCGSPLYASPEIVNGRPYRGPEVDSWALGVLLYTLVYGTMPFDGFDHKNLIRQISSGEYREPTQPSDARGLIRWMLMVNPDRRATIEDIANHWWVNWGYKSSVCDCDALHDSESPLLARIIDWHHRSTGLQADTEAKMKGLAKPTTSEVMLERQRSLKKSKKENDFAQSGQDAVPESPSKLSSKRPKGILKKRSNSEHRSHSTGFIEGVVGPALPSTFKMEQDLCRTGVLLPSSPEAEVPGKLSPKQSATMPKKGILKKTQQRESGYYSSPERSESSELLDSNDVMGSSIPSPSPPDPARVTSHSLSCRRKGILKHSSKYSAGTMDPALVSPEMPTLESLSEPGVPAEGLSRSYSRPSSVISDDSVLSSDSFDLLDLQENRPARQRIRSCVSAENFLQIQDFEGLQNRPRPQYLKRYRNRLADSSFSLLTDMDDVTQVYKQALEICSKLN
Procedure: as §2

RET = RET (Homo sapiens, UniProt P07949); test: Kinase inhibition, RET; type: biochemical; conditions: 10 μM ATP; read-out: Compound IC50 (M), RET
Chain of RET (P07949 29-1114): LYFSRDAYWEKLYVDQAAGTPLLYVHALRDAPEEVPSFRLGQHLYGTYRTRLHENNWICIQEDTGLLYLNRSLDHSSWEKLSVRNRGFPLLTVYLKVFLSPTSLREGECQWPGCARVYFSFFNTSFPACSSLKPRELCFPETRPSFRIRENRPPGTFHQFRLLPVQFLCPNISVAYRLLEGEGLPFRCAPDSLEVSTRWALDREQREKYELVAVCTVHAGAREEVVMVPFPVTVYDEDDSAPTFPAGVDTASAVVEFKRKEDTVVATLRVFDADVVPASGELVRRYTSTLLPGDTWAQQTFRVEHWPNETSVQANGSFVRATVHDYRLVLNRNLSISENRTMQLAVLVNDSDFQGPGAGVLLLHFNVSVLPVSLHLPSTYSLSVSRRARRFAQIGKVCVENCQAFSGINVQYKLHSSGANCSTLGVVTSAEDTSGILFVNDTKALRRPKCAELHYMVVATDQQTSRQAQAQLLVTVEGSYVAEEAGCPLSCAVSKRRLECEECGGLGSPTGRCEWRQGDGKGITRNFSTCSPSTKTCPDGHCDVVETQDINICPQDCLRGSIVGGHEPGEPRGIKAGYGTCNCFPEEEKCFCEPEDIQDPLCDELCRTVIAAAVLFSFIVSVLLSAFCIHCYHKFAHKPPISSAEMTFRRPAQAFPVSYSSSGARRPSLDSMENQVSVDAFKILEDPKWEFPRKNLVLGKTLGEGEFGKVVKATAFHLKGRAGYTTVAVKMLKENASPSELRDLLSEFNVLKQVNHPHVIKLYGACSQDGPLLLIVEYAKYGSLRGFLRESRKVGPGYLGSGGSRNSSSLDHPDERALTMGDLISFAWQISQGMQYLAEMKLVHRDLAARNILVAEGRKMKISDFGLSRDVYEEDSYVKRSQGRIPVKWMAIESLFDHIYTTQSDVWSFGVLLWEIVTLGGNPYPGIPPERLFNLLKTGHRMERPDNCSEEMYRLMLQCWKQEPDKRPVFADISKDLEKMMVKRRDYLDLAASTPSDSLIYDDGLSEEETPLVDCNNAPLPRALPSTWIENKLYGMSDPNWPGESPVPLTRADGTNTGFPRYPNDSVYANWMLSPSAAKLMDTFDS
Procedure: as §2

FYN = FYN (Homo sapiens, UniProt P06241); test: Kinase inhibition, FYN; type: biochemical; conditions: 10 μM ATP; read-out: Compound IC50 (M), FYN
Procedure: as §2

SMILES: N.N.[Cl][Pt][Cl] [Cisplatin, reference compound]
- % inhibition at top conc. ([1]; HeLa, 72 h, top working concentration 100 μM): 99.18%
- pIC50 ([2]; DU 145, 72 h): 6.02
- % inhibition at top conc. ([2]; DU 145, 72 h, top working concentration 100 μM): 95.44%
- pIC50 ([3]; K-562, 72 h): 5.42
- % inhibition at top conc. ([3]; K-562, 72 h, top working concentration 100 μM): 98.74%
- % inhibition at top conc. ([4]; GRANTA-519, 72 h, top working concentration 100 μM): 77.25%
- pIC50 ([4]; GRANTA-519, 72 h, CellTiter-Glo): 5.77

SMILES: N#Cc1cc2cnc(Nc3ccc(N4CCNCC4)cc3)nc2n(C2CCCC2)c1=O [ON 1232580, 8-Cyclopentyl-7-oxo-2-(4-piperazin-1-yl-phenylamino)-7,8-dihydro-pyrido[2,3-d]pyrimidine-6-carbonitrile]
- Cytotoxicity, result in words ([1]; HeLa cells): potent inhibitor
- pIC50 ([1]; Homo sapiens, HeLa, 72 h, CellTiter-Glo, read-out: Absolute IC50): 5.82
- inhibition at 100 µM ([1]; Homo sapiens, HeLa, 72 h, top working concentration 100 μM, read-out: % inhibition at top conc.): 100%
- IC50 (PDGFRb): 6.12e-09 M
- IC50 (FLT3): 4.25e-09 M
- IC50 (CDK6/cyclin D1): < 1e-09 M
- IC50 (CDK9/cyclin K): 8.06e-09 M
- IC50 (FGFR1): 3.09e-08 M
- IC50 (CDK4/cyclin D3): 2.77e-09 M
- IC50 (FLT4/VEGFR3): 6.97e-09 M
- Cytotoxicity, result in words [5]: potent killer
- IC50 (CDK6/cyclin D3): 2.97e-09 M
- IC50 (PKG2/PRKG2): > 0.0001 M
- IC50 (CDK4/cyclin D1): < 1e-09 M
- Cytotoxicity, result in words ([2]; DU 145 cells): potent inhibitor
- pIC50 ([2]; Homo sapiens, DU 145, 72 h): 6.03
- inhibition at 100 µM ([2]; Homo sapiens, DU 145, 72 h, top working concentration 100 μM, read-out: % inhibition at top conc.): 99.9%
- IC50 (ABL1): 2.01e-08 M
- IC50 (ARK5/NUAK1): 2.28e-09 M
- IC50 (RET): 8.13e-09 M
- IC50 (FYN): 3.29e-08 M
- pIC50 ([3]; Homo sapiens, K562, K-562, 72 h): 5.92
- inhibition at 100 µM ([3]; Homo sapiens, K562, K-562, 72 h, top working concentration 100 μM, read-out: % inhibition at top conc.): 100%
- Cytotoxicity, result in words ([3]; K-562 cells): potent inhibitor
- inhibition at 100 µM ([4]; Homo sapiens, Granta-519, 72 h, read-out: % inhibition at top conc.): 100%
- pIC50 ([4]; Homo sapiens, Granta-519, 72 h): 6.40

SMILES: CC(=O)c1c(C)c2cnc(Nc3ccc(N4CCNCC4)cn3)nc2n(C2CCCC2)c1=O [Palbociclib, palbociclib, reference compound]
- IC50 (FLT4/VEGFR3): 1.72e-05 M
- IC50 (ARK5/NUAK1): 1.91e-06 M

From patent publication US20220002293A1, “8-CYCLOPENTYL-7-OXO-2-(4-PIPERAZIN-1-YL-PHENYLAMINO)-7, 8-DIHYDRO-PYRIDO [2,3-D]PYRIMIDINE-6-CARBONITRILE AND USES THEREOF IN TREATING PROLIFERATIVE DISORDERS” (ONCONOVA THERAPEUTICS, INC., priority 2018, published 2022)
